The test system of one assay is ARH-77 cells. Description: Cell viability assay (CellTiter-Glo), ARH-77. It is filed as cell-based. The note with it: Homo sapiens, ARH-77, 24 hours incubation, 1% FBS, read-out: Average pIC50 by molecule ARH-77 (converted). An excerpt:
(§1) The effect of various compounds of the invention on the viability of OPM-2, MV-4-11 and ARH-77 cell lines was investigated, using the CTG protocol described below.
(§2) OPM-2 and MV-4-11 cell lines are derived from multiple myeloma and acute myeloid leukaemia, respectively. Both cell lines are described in the literature as MCL-1 dependent lines, as opposed to lymphoblast-like ARH-77 cell line, which is described as independent of MCL-1 (Tron A E et al. Nat Commun. 2018; 9: 5341; Caenepeel S et al. Cancer Discov. 2018 December; 8(12):1582-1597).
(§3) Cells (OPM-2, MV-4-11 or ARH-77) were seeded on […] in a growth medium with FBS reduced to 1%. Next, compound stocks were pre-diluted in DMSO and added directly to the cells growth medium (final DMSO concentration: 0.5%). Compound concentrations used in this assay: 1/3 dilutions starting at 30 uM (9 to 12 points).
(§4) After 24 hours of incubation, cell viability was evaluated using CellTiter-Glo Luminescent Cell Viability Assay (Promega, cat #G7572). Luminescence signal was measured using a CLARIOstar Plus Multi-Mode Microplate Reader (574-590 nm).
(§5) Results were normalized to DMSO control.

A further assay has as its system MV-4-11 cells. Description: Cell viability assay (CellTiter-Glo), MV-4-11. It counts as cell-based. The note with it: Homo sapiens, MV4-11, 24 hours incubation, 1% FBS, read-out: Average pIC50 by molecule MV-4-11 (converted).
Description: as §1, §2, §3, §4, §5
Background: Cellular ATP, detected with luciferase, serves as a proxy for viable cell number.

The target of assay [1] is [MCL-1]-[compound of formula (I)]-[CRBN/DDB1] complex (Homo sapiens, UniProt Q07820+Q96SW2). Description: AlphaLISA dose response ternary complex formation assay. It counts as binding. To be noted: read-out: AlphaLISA dose response Average pEC50 by molecule (converted). How it is done:
The effect of the bifunctional compounds of the invention on the formation of a ternary complex composed of [MCL-1]-[compound of formula (I)]-[CRBN/DDB1] was investigated with two methods: AlphaLISA dose response assay or HTRF ternary complex assay.
Two types of protein solution were prepared: • 40 nM biotinylated hMCL-1, 40 μg/ml AlphaScreen Streptavidin-coated Donor Beads in PBS buffer with 0.1% Tween-20 and 1 mM DTT, • 200 nM 6×His-CRBN/Strep-DDB1, 40 μg/ml AlphaLISA Anti-6×His Acceptor beads in PBS buffer with 0.1% Tween-20 and 1 mM DTT.
The prepared solutions were incubated at room temperature for 45 min and then the solution containing the donor beads was mixed with the solution containing the acceptor beads.
The tested compounds were dispensed onto a white 384-well AlphaPlate 384 SW. DMSO was backfilled to all wells, resulting in a final DMSO content of 2%. Wells containing only DMSO served as background. Next, 10 μl of solution with donor and acceptor beads was added to the wells.
The plate was sealed with transparent film and shaken using a VibroTurbulator for 60 see at room temperature, level 3. The plate was then spun down shortly (10 s, 1000 rcf, room temperature) and incubated at 25° C. for 30 min.
The read-out was performed with PerkinElmer Enspire Multimode Plate Reader (method for AlphaLISA 384-well low volume, Filterset: λexc=680 nm, λem=615 nm).
The results were analyzed as follows: • 1) an average of luminescence for background signal was calculated and used as a negative control; • 2) average of the maximum measured luminescence for 233 was calculated and used as an internal positive control; • 3) raw luminescence values were normalized against positive and negative controls; • 4) concentration points above the hook point were excluded; • 5) EC50 and pEC50 values were determined.

Each structure is given as a SMILES string.

[MCL-1]-[compound of formula (I)]-[CRBN/DDB1] complex, sequence (Q07820 whole entry): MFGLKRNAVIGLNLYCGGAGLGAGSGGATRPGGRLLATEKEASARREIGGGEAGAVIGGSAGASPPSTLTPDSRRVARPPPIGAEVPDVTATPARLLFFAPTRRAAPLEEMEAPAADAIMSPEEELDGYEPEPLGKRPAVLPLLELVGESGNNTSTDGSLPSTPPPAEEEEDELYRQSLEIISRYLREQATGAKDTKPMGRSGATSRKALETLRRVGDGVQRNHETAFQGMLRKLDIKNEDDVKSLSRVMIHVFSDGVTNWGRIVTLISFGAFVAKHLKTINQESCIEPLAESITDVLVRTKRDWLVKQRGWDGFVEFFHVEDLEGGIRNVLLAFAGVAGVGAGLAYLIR
[MCL-1]-[compound of formula (I)]-[CRBN/DDB1] complex, sequence (Q96SW2 whole entry): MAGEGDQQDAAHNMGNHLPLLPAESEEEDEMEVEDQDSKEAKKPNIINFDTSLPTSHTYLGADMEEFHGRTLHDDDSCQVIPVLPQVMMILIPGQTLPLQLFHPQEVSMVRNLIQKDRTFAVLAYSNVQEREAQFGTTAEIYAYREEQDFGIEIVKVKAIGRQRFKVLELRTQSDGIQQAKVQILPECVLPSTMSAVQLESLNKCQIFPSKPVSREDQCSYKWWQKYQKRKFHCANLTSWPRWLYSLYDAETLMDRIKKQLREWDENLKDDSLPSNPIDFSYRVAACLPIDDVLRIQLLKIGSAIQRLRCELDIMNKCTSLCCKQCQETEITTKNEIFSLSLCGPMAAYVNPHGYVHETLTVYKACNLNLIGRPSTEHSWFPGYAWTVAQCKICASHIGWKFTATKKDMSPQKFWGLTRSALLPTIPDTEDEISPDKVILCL
[MCL-1]-[compound of formula (I)]-[CRBN/DDB1] complex, sequence (Q16531 whole entry partner): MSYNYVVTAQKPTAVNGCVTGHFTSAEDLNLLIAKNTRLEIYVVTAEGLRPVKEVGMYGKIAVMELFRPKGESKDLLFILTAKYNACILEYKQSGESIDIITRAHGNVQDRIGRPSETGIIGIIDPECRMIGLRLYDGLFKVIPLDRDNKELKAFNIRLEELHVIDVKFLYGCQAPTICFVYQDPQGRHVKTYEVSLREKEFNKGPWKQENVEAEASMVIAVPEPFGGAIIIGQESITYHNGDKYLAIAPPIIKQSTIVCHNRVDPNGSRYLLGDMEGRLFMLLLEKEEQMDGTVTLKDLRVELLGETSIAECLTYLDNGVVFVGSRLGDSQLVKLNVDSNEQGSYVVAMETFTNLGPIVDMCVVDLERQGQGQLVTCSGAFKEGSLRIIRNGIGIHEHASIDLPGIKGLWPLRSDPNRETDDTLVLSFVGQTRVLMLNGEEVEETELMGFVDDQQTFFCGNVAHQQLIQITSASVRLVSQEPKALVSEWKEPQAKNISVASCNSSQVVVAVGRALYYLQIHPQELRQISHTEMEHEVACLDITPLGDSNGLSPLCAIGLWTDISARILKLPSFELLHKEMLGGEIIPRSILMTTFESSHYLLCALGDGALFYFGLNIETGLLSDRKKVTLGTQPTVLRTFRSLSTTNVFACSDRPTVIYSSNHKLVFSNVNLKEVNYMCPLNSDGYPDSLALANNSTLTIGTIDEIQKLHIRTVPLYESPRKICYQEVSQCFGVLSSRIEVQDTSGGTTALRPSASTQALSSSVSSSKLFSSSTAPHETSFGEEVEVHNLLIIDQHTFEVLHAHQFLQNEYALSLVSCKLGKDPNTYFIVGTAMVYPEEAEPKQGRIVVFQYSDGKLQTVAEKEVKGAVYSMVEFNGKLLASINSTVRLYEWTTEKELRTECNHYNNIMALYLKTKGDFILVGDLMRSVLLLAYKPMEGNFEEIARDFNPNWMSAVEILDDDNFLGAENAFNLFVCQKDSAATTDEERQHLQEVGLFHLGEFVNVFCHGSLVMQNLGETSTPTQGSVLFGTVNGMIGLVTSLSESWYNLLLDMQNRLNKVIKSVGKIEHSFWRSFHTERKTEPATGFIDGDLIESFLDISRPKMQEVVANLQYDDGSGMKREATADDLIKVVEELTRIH

For `Cc1nn(C)c(C)c1-c1c(Cl)ccc2c(CCCOc3cccc4cc(F)ccc34)c(C(=O)O)n(CCN3CCC(CN4CCN(c5cc6c(cc5F)C(=O)N(C5CCC(=O)NC5=O)C6=O)CC4)CC3)c12` (stereo not drawn) [Compound 331, 6-Chloro-1-(2-(4-((4-(2-(2,6-dioxopiperidin-3-yl)-6-fluoro-1,3-dioxoisoindolin-5-yl)piperazin-1-yl)methyl)piperidin-1-yl)ethyl)-3-(3-((6-fluoronaphthalen-1-yl)oxy)propyl)-7-(1,3,5-trimethyl-1H-pyrazol-4-yl)-1H-indole-2-carboxylic acid], the IC50 in the assay with ARH-77 cells is over 10 µM; in the assay with MV-4-11 cells, at most 316 nM. Moreover, in assay [1], the EC50 is under 100 nM.
The corresponding values for `Cc1nn2c(c1-c1c(F)ccc3c(CCCOc4cccc5cc(F)ccc45)c(C(=O)O)n(CCN4CCN(C(=O)COc5cccc6c5CN(C5CCC(=O)NC5=O)C6=O)CC4)c13)CCC2` (stereo not drawn) [Compound 225, 1-(2-(4-(2-((2-(2,6-dioxopiperidin-3-yl)-1-oxoisoindolin-4-yl)oxy)acetyl)piperazin-1-yl)ethyl)-6-fluoro-3-(3-((6-fluoronaphthalen-1-yl)oxy)propyl)-7-(2-methyl-5,6-dihydro-4H-pyrrolo[1,2-b]pyrazol-3-yl)-1H-indole-2-carboxylic acid] are over 10 µM, at most 316 nM and under 100 nM.
The corresponding values for `COc1ccc(C(=O)NC2CCC(=O)NC2=O)c2nc(C)n(CC(=O)N3CCN(CCn4c(C(=O)O)c(CCCOc5cccc6cc(F)ccc56)c5ccc(Cl)c(-c6c(C)nn(C)c6C)c54)CC3)c12` (stereo not drawn) [Compound 272, 6-Chloro-1-(2-(4-(2-(4-((2,6-dioxopiperidin-3-yl)carbamoyl)-7-methoxy-2-methyl-1H-benzo[d]imidazol-1-yl)acetyl)piperazin-1-yl)ethyl)-3-(3-((6-fluoronaphthalen-1-yl)oxy)propyl)-7-(1,3,5-trimethyl-1H-pyrazol-4-yl)-1H-indole-2-carboxylic acid] are over 10 µM, at most 100 nM and under 100 nM.
The corresponding values for `Cc1nn2c(c1-c1c(F)ccc3c(CCCOc4cccc5cc(F)ccc45)c(C(=O)O)n(CCN4CCN(C(=O)COc5cccc6c5CN(C5CCC(=O)NC5=O)C6=O)CC4)c13)OCC2` (stereo not drawn) [Compound 351, 1-{2-[4-(2-{[2-(2,6-dioxopiperidin-3-yl)-1-oxo-2,3-dihydro-1H-isoindol-4-yl]oxy}acetyl)piperazin-1-yl]ethyl}-6-fluoro-3-{3-[(6-fluoronaphthalen-1-yl)oxy]propyl}-7-{6-methyl-2H,3H-pyrazolo[3,2-b][1,3]oxazol-7-yl}-1H-indole-2-carboxylic acid] are over 31.6 µM, at most 316 nM and under 10 nM.
Consider `Cc1nn(C)c(C)c1-c1c(Cl)ccc2c(CCCOc3cccc4cc(F)ccc34)c(C(=O)O)n(CCN3CCN(C(=O)Cn4c(C)nc5c(C(=O)NC6CCC(=O)NC6=O)ccc(Cl)c54)CC3)c12` (stereo not drawn) [Compound 271, 6-Chloro-1-(2-(4-(2-(7-chloro-4-((2,6-dioxopiperidin-3-yl)carbamoyl)-2-methyl-1H-benzo[d]imidazol-1-yl)acetyl)piperazin-1-yl)ethyl)-3-(3-((6-fluoronaphthalen-1-yl)oxy)propyl)-7-(1,3,5-trimethyl-1H-pyrazol-4-yl)-1H-indole-2-carboxylic acid], for which the IC50 with ARH-77 cells is over 10 µM; in the assay on MV-4-11 cells, at most 100 nM. For the same compound, the EC50 in assay [1] was under 100 nM.
As to `Cc1nn2c(c1-c1c(F)ccc3c(CCCOc4cccc5cc(F)ccc45)c(C(=O)O)n(CCN4CCN(C(=O)COc5cccc6c5CN(C5CCC(=O)NC5=O)C6=O)CC4)c13)COCC2` (stereo not drawn) [Compound 226, 1-{2-[4-(2-{[2-(2,6-dioxopiperidin-3-yl)-1-oxo-2,3-dihydro-1H-isoindol-4-yl]oxy}acetyl)piperazin-1-yl]ethyl}-6-fluoro-3-{3-[(6-fluoronaphthalen-1-yl)oxy]propyl}-7-{2-methyl-4H,6H,7H-pyrazolo[3,2-c][1,4]oxazin-3-yl}-1H-indole-2-carboxylic acid], the IC50 in the assay on ARH-77 cells is over 10 µM; in the assay on MV-4-11 cells it was at most 100 nM. Moreover, the EC50 in assay [1] was under 100 nM.
The corresponding values for `Cc1nn(C)c(C)c1-c1c(Cl)ccc2c(CCCOc3cccc4cc(F)ccc34)c(C(=O)O)n(CCN3CCN(C(=O)[C@@H](C)Oc4cccc5c4C(=O)N([C@@H]4CCC(=O)NC4=O)C5=O)CC3)c12` (single isomer, unassigned) [Compound 316] are over 3.16 µM, at most 100 nM and under 1000 nM.
The corresponding values for `Cc1nn(C)c(C)c1-c1c(Cl)ccc2c(CCCOc3cccc4cc(F)ccc34)c(C(=O)O)n(CCN3CCN(C(=O)Cn4c(C)nc5c(C(=O)NC6CCC(=O)NC6=O)cc(Cl)cc54)CC3)c12` (stereo not drawn) [Compound 276, 6-Chloro-1-(2-(4-(2-(6-chloro-4-((2,6-dioxopiperidin-3-yl)carbamoyl)-2-methyl-1H-benzo[d]imidazol-1-yl)acetyl)piperazin-1-yl)ethyl)-3-(3-((6-fluoronaphthalen-1-yl)oxy)propyl)-7-(1,3,5-trimethyl-1H-pyrazol-4-yl)-1H-indole-2-carboxylic acid] are over 10 µM, at most 100 nM and under 100 nM.
The corresponding values for `Cc1nn(C)c(C)c1-c1c(Cl)ccc2c(CCCOc3cccc4cc(F)ccc34)c(C(=O)O)n(CCN3CCN(C(=O)[C@@H](C)Oc4cccc5c4C(=O)N([C@H]4CCC(=O)NC4=O)C5=O)CC3)c12` (single isomer, unassigned) [Compound 317] are over 3.16 µM, at most 31.6 nM and under 100 nM.
Take `Cc1nc2c(NCC(=O)N3CCN(CCn4c(C(=O)O)c(CCCOc5cccc6cc(F)ccc56)c5ccc(Cl)c(-c6c(C)nn(C)c6C)c54)CC3)cccc2cc1C1CCC(=O)NC1=O` (stereo not drawn) [Compound 284, 6-Chloro-1-{2-[4-(2-{[3-(2,6-dioxopiperidin-3-yl)-2-methylquinolin-8-yl]amino}acetyl)piperazin-1-yl]ethyl}-3-{3-[(6-fluoronaphthalen-1-yl)oxy]propyl}-7-(1,3,5-trimethyl-1H-pyrazol-4-yl)-1H-indole-2-carboxylic acid]: the IC50 with ARH-77 cells was over 3.16 µM; in the assay on MV-4-11 cells, at most 100 nM. In addition, the EC50 in assay [1] was under 100 nM.
Regarding `Cc1nn(C)c(C)c1-c1c(Cl)ccc2c(CCCOc3cccc4cc(F)ccc34)c(C(=O)O)n(CCCOCCOc3cccc4c3CN(C3CCC(=O)NC3=O)C4=O)c12` (stereo not drawn) [Compound 329, 6-Chloro-1-[3-(2-{[2-(2,6-dioxopiperidin-3-yl)-1-oxo-2,3-dihydro-1H-isoindol-4-yl]oxy}ethoxy)propyl]-3-{3-[(6-fluoronaphthalen-1-yl)oxy]propyl}-7-(1,3,5-trimethyl-1H-pyrazol-4-yl)-1H-indole-2-carboxylic acid], the IC50 is over 10 µM in the assay with ARH-77 cells and at most 316 nM in the assay with MV-4-11 cells. Also, in assay [1], the EC50 was under 100 nM.
The corresponding values for `Cc1nn(C)c(C)c1-c1c(Cl)ccc2c(CCCOc3cccc4cc(F)ccc34)c(C(=O)O)n(CCN3CCN(C(=O)Cn4c(C)nc5c(C(=O)NC6CCC(=O)NC6=O)cc(Br)cc54)CC3)c12` (stereo not drawn) [Compound 273, 1-{2-[4-(2-{6-Bromo-4-[(2,6-dioxopiperidin-3-yl)carbamoyl]-2-methyl-1H-1,3-benzodiazol-1-yl}acetyl)piperazin-1-yl]ethyl}-6-chloro-3-{3-[(6-fluoronaphthalen-1-yl)oxy]propyl}-7-(1,3,5-trimethyl-1H-pyrazol-4-yl)-1H-indole-2-carboxylic acid] are over 10 µM, at most 316 nM and under 10 nM.
